What was measured:
MV4-11 [1] = format: functional, Homo sapiens; settings: dose 3.2 nM; time 24 hrs
MV4-11 [2] = experiment: Induction of cell cycle arrest in human MV4-11 cells assessed as proportion of cells at G2/M phase at 3.2 nM incubated for 24 hrs by PI staining based flow cytometry (reference value: 10%); format: functional
MV4-11 [3] = experiment: Induction of cell cycle arrest in human MV4-11 cells assessed as proportion of cells at subG1 phase at 3.2 nM incubated for 24 hrs by PI staining based flow cytometry (reference value: 10.44%); format: functional
MV4-11 [4] = format: functional, Homo sapiens; settings: dose 16 nM; time 24 hrs
MV4-11 [5] = experiment: Induction of cell cycle arrest in human MV4-11 cells assessed as proportion of cells at G2/M phase at 16 nM incubated for 24 hrs by PI staining based flow cytometry (reference value: 10%); format: functional
MV4-11 [6] = experiment: Induction of cell cycle arrest in human MV4-11 cells assessed as proportion of cells at S phase at 80 nM incubated for 24 hrs by PI staining based flow cytometry (reference value: 25.97%); format: functional
MV4-11 [7] = experiment: Induction of cell cycle arrest in human MV4-11 cells assessed as proportion of cells at subG1 phase at 80 nM incubated for 24 hrs by PI staining based flow cytometry (reference value: 10.44%); format: functional
MV4-11 [8] = experiment: Induction of cell cycle arrest in human MV4-11 cells assessed as proportion of cells at G2/M phase at 400 nM incubated for 24 hrs by PI staining based flow cytometry (reference value: 10%); format: functional
MV4-11 [9] = experiment: Induction of cell cycle arrest in human MV4-11 cells assessed as proportion of cells at S phase at 2000 nM incubated for 24 hrs by PI staining based flow cytometry (reference value: 25.97%); format: functional
MV4-11 [10] = experiment: Induction of cell cycle arrest in human MV4-11 cells assessed as proportion of cells at G2/M phase at 2000 nM incubated for 24 hrs by PI staining based flow cytometry (reference value: 10%); format: functional
MV4-11 [11] = experiment: Induction of cell cycle arrest in human MV4-11 cells assessed as proportion of cells at subG1 phase at 2000 nM incubated for 24 hrs by PI staining based flow cytometry (reference value: 10.44%); format: functional
HL-60 [12] = experiment: Induction of cell cycle arrest in human HL-60 cells assessed as proportion of cells at G1 phase at 3.2 nM incubated for 24 hrs by PI staining based flow cytometry (reference value: 49.36%); format: functional
HL-60 [13] = experiment: Induction of cell cycle arrest in human HL-60 cells assessed as proportion of cells at S phase at 3.2 nM incubated for 24 hrs by PI staining based flow cytometry (reference value: 36.12%); format: functional
HL-60 [14] = experiment: Induction of cell cycle arrest in human HL-60 cells assessed as proportion of cells at G2/M phase at 3.2 nM incubated for 24 hrs by PI staining based flow cytometry (reference value: 14.52%); format: functional
HL-60 [15] = experiment: Induction of cell cycle arrest in human HL-60 cells assessed as proportion of cells at S phase at 16 nM incubated for 24 hrs by PI staining based flow cytometry (reference value: 36.12%); format: functional
HL-60 [16] = experiment: Induction of cell cycle arrest in human HL-60 cells assessed as proportion of cells at subG1 phase at 80 nM incubated for 24 hrs by PI staining based flow cytometry (reference value: 6.94%); format: functional
HL-60 [17] = experiment: Induction of cell cycle arrest in human HL-60 cells assessed as proportion of cells at subG1 phase at 400 nM incubated for 24 hrs by PI staining based flow cytometry (reference value: 6.94%); format: functional
HL-60 [18] = experiment: Induction of cell cycle arrest in human HL-60 cells assessed as proportion of cells at G2/M phase at 2000 nM incubated for 24 hrs by PI staining based flow cytometry (reference value: 14.52%); format: functional
[19] = target: Receptor-type tyrosine-protein kinase FLT3 (Homo sapiens) (UniProt P36888); experiment: Inhibition of FLT3 in human MV4-11 cells assessed as inhibition of STAT5 phosphorylation at Tyr694 residue incubated for 1 hr by immunoblot analysis; format: cell-based; settings: dose lower […], dose upper 2000.0 nM
[20] = target: T1, Receptor-type tyrosine-protein kinase FLT3 (Homo sapiens, UniProt P36888)
T1 sequence (P36888 whole entry): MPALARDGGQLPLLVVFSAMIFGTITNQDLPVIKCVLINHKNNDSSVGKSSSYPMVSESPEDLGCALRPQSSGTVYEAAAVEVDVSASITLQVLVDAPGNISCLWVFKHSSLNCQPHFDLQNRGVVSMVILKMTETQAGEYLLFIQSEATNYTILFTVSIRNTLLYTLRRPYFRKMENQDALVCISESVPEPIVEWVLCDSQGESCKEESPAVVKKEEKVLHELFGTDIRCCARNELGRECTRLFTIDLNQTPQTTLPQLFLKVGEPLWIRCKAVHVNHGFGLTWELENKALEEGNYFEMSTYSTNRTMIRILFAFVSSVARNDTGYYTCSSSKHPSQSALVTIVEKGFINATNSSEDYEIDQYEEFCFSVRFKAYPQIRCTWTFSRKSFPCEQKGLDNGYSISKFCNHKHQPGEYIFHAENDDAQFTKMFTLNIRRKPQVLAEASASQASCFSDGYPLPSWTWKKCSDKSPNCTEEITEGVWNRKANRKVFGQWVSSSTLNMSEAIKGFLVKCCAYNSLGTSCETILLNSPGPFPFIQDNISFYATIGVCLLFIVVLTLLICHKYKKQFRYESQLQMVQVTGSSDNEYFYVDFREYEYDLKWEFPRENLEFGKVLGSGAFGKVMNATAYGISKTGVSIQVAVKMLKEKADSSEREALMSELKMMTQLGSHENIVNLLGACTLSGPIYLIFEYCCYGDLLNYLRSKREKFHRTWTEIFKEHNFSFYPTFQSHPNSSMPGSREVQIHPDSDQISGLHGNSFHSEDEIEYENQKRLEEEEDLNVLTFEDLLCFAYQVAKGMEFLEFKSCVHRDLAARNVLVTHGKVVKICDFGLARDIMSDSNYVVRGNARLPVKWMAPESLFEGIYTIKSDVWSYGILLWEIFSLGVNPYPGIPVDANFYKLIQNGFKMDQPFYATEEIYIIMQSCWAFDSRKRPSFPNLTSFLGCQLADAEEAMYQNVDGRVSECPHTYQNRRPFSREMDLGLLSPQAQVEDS
Description: Inhibition of NanoLuc-fused FLT3 (unknown origin) transfected in HEK293 cells incubated for 2 hrs by NanoBRET target engagement assay

K562 = experiment: cells; settings: Homo sapiens, K562, 72 h
Description: Antiproliferative activity against FLT3-independent human K562 cells assessed as inhibition of cell growth incubated for 72 hrs by resazurin dye based fluorescence analysis

MOLM-13 = experiment: cells; settings: Homo sapiens, MOLM-13, 72 h
BaF3 [21] = experiment: cells; settings: Mus musculus, BaF3, 72 h
Description: Antiproliferative activity against mouse BaF3 cells assessed as inhibition of cell growth incubated for 72 hrs by resazurin dye based fluorescence analysis

BaF3 [22] = experiment: cells; settings: Mus musculus, BaF3, 72 h; remark: listed apart in the source
BaF3 [23] = experiment: cells; settings: Mus musculus, BaF3, 72 h; remark: listed apart in the source

COc1ccc(NC(=O)Nc2nnc(Sc3ncnc4oc(-c5ccccc5)cc34)s2)cc1
Activity (MV4-11 [1]): 72.92%
Activity (MV4-11 [2]): 6.22%
Activity (MV4-11 [3]): 12.84%
Activity (MV4-11 [4]): 89.29%
Activity (MV4-11 [5]): 2.63%
Activity (MV4-11 [6]): 3.85%
Activity (MV4-11 [7]): 26.76%
Activity (MV4-11 [8]): 1.43%
Activity (MV4-11 [9]): 5.78%
Activity (MV4-11 [10]): 1.1%
Activity (MV4-11 [11]): 38.33%
Activity (HL-60 [12]): 49.95%
Activity (HL-60 [13]): 37.01%
Activity (HL-60 [14]): 13.04%
Activity (HL-60 [15]): 37.68%
Activity (HL-60 [16]): 8.17%
Activity (HL-60 [17]): 7.9%
Activity (HL-60 [18]): 13.94%
inhibition [19]: Dose-dependent-effect
IC50 [20]: 0.174 µM
GI50 (K562): > 10 µM
GI50 (MOLM-13): 0.063 µM
GI50 (BaF3 [21]): > 10 µM
GI50 (BaF3 [22]): 0.054 µM
GI50 (BaF3 [23]): 0.277 µM

From ChEMBL document CHEMBL6092193, “Identification of furo[2,3-d]pyrimidin-4-ylsulfanyl-1,3,4-thiadiazole derivatives as novel FLT3-ITD inhibitors” (Eur J Med Chem, 2024)
